From patent US10751353B2, “Compositions and methods for treating an aggregation disease or disorder” (Seelos Therapeutics, Inc., priority 2013, dated 2020)
Several values for one entry are separate records, joined by “and”; a condition that tells them apart may be missing. Equal entries are not always repeated. Where two headings read alike, the source gives them in different places.

Columns and labels:
[1] = system: Dog; conditions: cited from earlier work; for LD50: Dog
[2] = system: Rat; conditions: cited from earlier work
[3] = cited from earlier work
[4] = Preclinical PK study: plasma and muscle concentrations of trehalose after IV bolus and oral gavage; type: in vivo, male Sprague-Dawley (SD) rats
Procedure: The plasma and muscle concentrations of trehalose in male Sprague-Dawley (SD) rats was determined after intravenous bolus (IV) and oral gavage (PO) administration.
The study included 42 SD rats (male, 250 to 350 grams in weight, the Shanghai SLAC Laboratory Animal Co. Ltd.). Animals were administered with a volume of 5 ml/kg trehalose formulation (trehalose dihydrate in sterilized water at 200 mg/mL) to achieve a nominal dose of 1 gr/kg, intravenously or orally.
Blood samples were collected after each dose administration and processed for plasma. Muscle samples (hind leg muscle) were collected and homogenized. The concentrations of trehalose in plasma and muscle homogenate samples were analyzed by qualified bioanalytical LC/MS/MS methods.
Plasma concentration data of trehalose was subjected to a non compartmental pharmacokinetic analysis using WinNonlin software program (version 6.3, Pharsight, Mountain View, Calif.). Zero-time intercept concentration (C0), volume of distribution (Vdss), Clearance (Cl) peak plasma concentrations (Cmax) and the corresponding peak times (Tmax), terminal half-life (T½), mean residence time (MRT) from time zero to the last time point (MRT0-last), MRT from time zero to infinity (MRT0-inf), the area under the plasma concentration-time curve (AUC) from time zero to the last time point (AUC0-last) and AUC from time zero extrapolated to infinity (AUC0-inf) were calculated using the linear/log trapezoidal rule. Nominal sampling times were used to calculate all pharmacokinetic parameters since there was not any deviation larger than 5% between the actual and nominal sampling times.
The values of muscle to plasma concentration and AUC ratio (M/P ratio) were both calculated.

[5] = system: Mouse; conditions: cited from earlier work; for LD50: Mouse
[6] = system: mutant PABPN1 proteins; conditions: OPMD cell models; cited from earlier work
[7] = system: OPMD mouse model; conditions: cited from earlier work
[8] = cited from earlier work; remark: listed apart in the source
[9] = rabbits; 500 mg intravenously; cited from earlier work
[10] = male, Sprague-Dawley, rat, in vivo, iv, 1000 mg/kg
[11] = male, Sprague-Dawley, rat, in vivo, po, 1000 mg/kg

SMILES: OC[C@H]1O[C@H](O[C@H]2O[C@H](CO)[C@@H](O)[C@H](O)[C@H]2O)[C@H](O)[C@@H](O)[C@@H]1O [trehalose]
- LD50 ([1]; Intravenous): >1000 mg/kg bw
- LD50 ([1]; Oral): >5000 mg/kg bw
- signs of toxicity and deaths ([1]; dogs, oral and intravenous administration): no deaths occurred
- LD50 ([2]; Rat, Intravenous): >1000 mg/kg bw
- signs of toxicity and deaths ([2]; rats, oral and intravenous administration): no deaths occurred
- share of ingested trehalose absorbed into the blood stream ([3]; oral ingestion): Less than 0.5%
- share of trehalose not absorbed into the blood stream ([3]; oral): Over 99.5%
- tolerability at the given dosage ([4]; 1000 mg/kg IV or PO, male SD rats): well tolerated
- bioavailability ([4]; male, Sprague-Dawley, rat, in vivo, 1000 mg/kg): 0.601%
- AUC(0-inf) [4, 10]: 781 µg·h/mL
- CI (total clearance) [4, 10]: 17.2 mL/min/kg
- Cmax [4, 10]: 3730 ng/mL and 3730 ng/g
- Vd [4, 10]: 0.685 L/kg
- Vdss [4, 10]: 0.685 L/kg
- clearance [4, 10]: 17.2 mL/min/kg
- total clearance as share of rat liver blood flow (=55 mL/min/kg) [4, 10]: approximately 31.3%
- AUC(0-t) ([4]; male, Sprague-Dawley, rat, in vivo, iv, 1000 mg/kg, AUC0-last): 778 µg·h/mL
- Kp ([4]; male, Sprague-Dawley, rat, in vivo, iv, 1000 mg/kg, AUC ratio = Muscle AUC0-inf/Plasma AUC0-inf): 0.234
- Kp ([4]; male, Sprague-Dawley, rat, in vivo, iv, 1000 mg/kg, mean ratios of muscle trehalose concentration to plasma concentration): 2.88 to 3.76
- AUC(0-t) ([4]; male, Sprague-Dawley, rat, in vivo, iv, 1000 mg/kg, muscle exposure AUC0-last (48 hr)): 107 µg·h/mL
- AUC0-inf/AUC0-last [4, 11]: 108%
- AUC0-last [4, 11]: 4.52 µg·h/mL
- AUC(0-inf) [4, 11]: 4.87 µg·h/mL
- Cmax [4, 11]: 4280 ng/mL
- T1/2 [4, 11]: 0.740 h
- AUC(0-t) ([4]; male, Sprague-Dawley, rat, in vivo, po, 1000 mg/kg, AUC0-last): 4.52 µg·h/mL
- MRT inf ([4]; male, Sprague-Dawley, rat, in vivo, po, 1000 mg/kg, MRT0-inf): 1.26 h
- MRT last ([4]; male, Sprague-Dawley, rat, in vivo, po, 1000 mg/kg, MRT0-last): 1.04 h
- half-life ([4]; male, Sprague-Dawley, rat, in vivo, po, 1000 mg/kg, T1/2): 0.74 h
- cellular uptake and retention after rapid intravenous administration ([4]; rat, in vivo, iv): 48 to 72 h
- AUC0-last ([4]; rat, in vivo, iv, 1000 mg/kg): 107000 ng·h/g
- AUC(0-inf) ([4]; rat, in vivo, iv, 1000 mg/kg): 183000 ng·h/g
- muscle samples of oral group ([4]; rat, in vivo, po, 1000 mg/kg): below LLOQ
- plasma and muscle concentrations of trehalose, formulation administered orally ([4]; rat, in vivo, po, 1000 mg/kg): undetectable
- LD50 ([5]; Intravenous): >1000 mg/kg bw
- LD50 ([5]; Oral): >5000 mg/kg bw
- signs of toxicity and deaths ([5]; mice, oral and intravenous administration): no deaths occurred
- aggregation and toxicity of mutant PABPN1 proteins [6]: effective in reducing
- aggregate formation [7]: decreased aggregate formation
- muscle weakness [7]: attenuation of muscle weakness
- number of pathological skeletal muscle fibers [7]: reduced number of pathological skeletal muscle fibers
- safety in healthy volunteers ([8]; oral doses 10 to 60 gr, apart from mild abdominal symptoms): no other safety issues were reported
- oral amount that causes diarrhea and bloating ([8]; oral): 40-50 gram per day
- oral amount that frequently causes diarrhea, bloating and discomfort ([8]; oral, humans): higher than 50 g a day
- time to clearance from the plasma [9]: ≤ 60 min
- trehalose detected in the urine [9]: none was detected
